Among the data in PubChem BioAssay AID1745844 (Carcinogenic Potency Database (CPDB), 2022) are TD50 and carcinogen call values, retold here.

The test system of this series is rodent lifetime carcinogenesis bioassay, tumor incidence TD50. As to the kind of experiment: chronic cancer bioassays in animals – CPDB, compiled studies (AID 1745844).

Active and inactive are the calls of the source. The rule behind the calls is not given here.

One may read the TD50 as the 50% point of the dose-response relation for the toxic effect studied.

For the molecule `O=C(O)c1ccc([N+](=O)[O-])cc1`, the TD50 reads like this: (mouse, strain B6C3F1, females, in feed, site: any site (literature study), lesion: several types, types named in the paper, dosed 103 weeks, study length 104 weeks) 3160 mg/kg/day (inactive); (mouse, strain B6C3F1, females, in feed, site: lung, lesion: alveolar/bronchiolar adenoma + alveolar/bronchiolar carcinoma, dosed 103 weeks, study length 104 weeks) 2330 mg/kg/day; (mouse, strain B6C3F1, males, in feed, site: lung, lesion: alveolar/bronchiolar adenoma + alveolar/bronchiolar carcinoma, dosed 103 weeks, study length 104 weeks) 4350 mg/kg/day; (rat, strain Fischer 344, females, in feed, site: any site (literature study), lesion: several types, types named in the paper, dosed 103 weeks, study length 104 weeks) 373 mg/kg/day; (rat, strain Fischer 344, females, in feed, site: clitoral gland, lesion: adenoma + adenoma, bilateral + carcinoma + carcinoma, bilateral, dosed 103 weeks, study length 104 weeks) 287 mg/kg/day; (rat, strain Fischer 344, females, in feed, site: clitoral gland, lesion: adenoma + adenoma, bilateral, dosed 103 weeks, study length 104 weeks) 439 mg/kg/day. The TD50 was 1080 mg/kg/day (rat, strain Fischer 344, females, in feed, site: clitoral gland, lesion: carcinoma + carcinoma, bilateral, dosed 103 weeks, study length 104 weeks); 197 mg/kg/day (rat, strain Fischer 344, females, in feed, site: uterus, lesion: endometrial stromal polyp + endometrial stromal sarcoma, dosed 103 weeks, study length 104 weeks); 220 mg/kg/day (rat, strain Fischer 344, females, in feed, site: uterus, lesion: endometrial stromal polyp, dosed 103 weeks, study length 104 weeks); 926 mg/kg/day (inactive) (rat, strain Fischer 344, males, in feed, site: preputial gland, lesion: carcinoma + carcinoma, bilateral, dosed 103 weeks, study length 104 weeks). For the same molecule, for the setting “mouse, strain B6C3F1, males, in feed, site: any site (literature study), lesion: several types, types named in the paper, dosed 103 weeks, study length 104 weeks”, the carcinogen call is “negative (inactive)”.
Take `NC1CCCCC1`: the carcinogen call was “negative (inactive)” (mouse, strain ASH-CS1, females, in feed, site: any site (literature study), lesion: several types, types named in the paper, dosed 80 weeks, study length 84 weeks); “negative (inactive)” (mouse, strain ASH-CS1, females, in feed, site: liver, lesion: nodular hyperplasia, dosed 80 weeks, study length 84 weeks); “negative (inactive)” (mouse, strain ASH-CS1, females, in feed, site: lung, lesion: adenoma, dosed 80 weeks, study length 84 weeks); “negative (inactive)” (mouse, strain ASH-CS1, males, in feed, site: any site (literature study), lesion: several types, types named in the paper, dosed 80 weeks, study length 84 weeks); “negative (inactive)” (mouse, strain ASH-CS1, males, in feed, site: lung, lesion: adenocarcinoma, dosed 80 weeks, study length 84 weeks); “negative (inactive)” (mouse, strain ASH-CS1, males, in feed, site: lung, lesion: adenoma, dosed 80 weeks, study length 84 weeks). The carcinogen call runs as follows: (mouse, strain Swiss, females, in feed, site: urinary bladder, lesion: anaplastic carcinoma, dosed 91 weeks, study length 91 weeks) “negative (inactive)”; (mouse, strain Swiss, males, in feed, site: urinary bladder, lesion: one or several types, types not named, dosed 91 weeks, study length 91 weeks) “negative (inactive)”; (rat, strain FDRL, both sexes, in feed, site: any site (literature study), lesion: several types, types named in the paper, dosed 104 weeks, study length 104 weeks) “negative (inactive)”; (rat, strain Sprague-Dawley, both sexes, in feed, site: any site (literature study), lesion: malignant tumor, dosed 130 weeks, study length 130 weeks) “negative (inactive)”; (rat, strain Sprague-Dawley, both sexes, in feed, site: urinary bladder, lesion: one or several types, types not named, dosed 130 weeks, study length 130 weeks) “negative (inactive)”; (rat, strain Wistar, males, in feed, site: liver, lesion: hemangioma, dosed 104 weeks, study length 104 weeks) “negative (inactive)”. Moreover, the TD50 runs as follows: (mouse, strain ASH-CS1, males, in feed, site: liver, lesion: nodular hyperplasia, dosed 80 weeks, study length 84 weeks) 231 mg/kg/day (inactive); (rat, strain Charles River albino, males, in feed, site: urinary bladder, lesion: transitional-cell carcinoma, dosed 104 weeks, study length 104 weeks) 280 mg/kg/day; (rat, strain Sprague-Dawley, both sexes, in feed, site: liver, lesion: liver-cell adenoma, dosed 130 weeks, study length 130 weeks) 14500 mg/kg/day (inactive); (rat, strain Wistar, females, in feed, site: liver, lesion: hemangioma, dosed 104 weeks, study length 104 weeks) 1330 mg/kg/day (inactive); (rat, strain Wistar, males, in feed, site: liver, lesion: nodular hyperplasia, dosed 104 weeks, study length 104 weeks) 47000 mg/kg/day (inactive).
For the molecule `O=NN1CCCC1c1cccnc1` (stereo unspecified), the TD50 was 11.5 mg/kg/day (hamster, strain Syrian Golden, females, in drinking water, site: respiratory system, lesion: papilloma, dosed 31 weeks, study length 96 weeks); 34.4 mg/kg/day (hamster, strain Syrian Golden, males, in drinking water, site: liver, lesion: angiosarcoma, dosed 31 weeks, study length 96 weeks); 10.1 mg/kg/day (hamster, strain Syrian Golden, males, in drinking water, site: respiratory system, lesion: papilloma, dosed 31 weeks, study length 96 weeks).
